Measurements published in PubChem BioAssay AID1918943 (Molecular Pharmacology Branch, DTP, NCI, 2023).

Test system: 855422-203-R-J1-PDC complex spheroid viability
Assay: Anticancer human tumor 855422-203-R-J1-PDC patient-derived bladder carcinoma cell line growth inhibition
Conditions: for IC50: curve of first compound; for viability, T/C: stronger effect = lower value
Text: Multicellular complex tumor spheroid response to LSD1 Inhibitor Iadademstat in combination with a variety of drugs and investigational agents in selected tumor cell lines
The current study was undertaken to assess response to LSD1 inhibitors in combination with standard-of-care drugs and investigational agents in solid tumor complex spheroid models as well as in the K-562 leukemia. Complex spheroids include a stromal component modeled by human endothelial cells (HUVEC) and fibroblasts modeled by human mesenchymal stem cells (MSCs). The concentration ranges selected for each drug and investigational agent were based upon clinically achievable concentrations if the clinical Cmax of the agent was known.
Compounds. The drugs and investigational agents used in this study are listed on Table 1. All of the agents used, including staurosporine (NSC755774) and gemcitabine (NSC613327), were obtained from the Developmental Therapeutics Program, NCI. FDA-approved anticancer drugs are available from the NCI at http://dtp.nci.nih.gov/branches/dscb/oncology_drugset_explanation.html. Drugs and investigational agents were >95% pure by proton nuclear magnetic resonance (NMR) and liquid chromatography/mass spectrometry (LC/MS). Stock solutions were prepared at 400x in DMSO, stored at -70 degrees C, and diluted in fresh medium prior to their use. The final concentration of DMSO in cell culture wells never exceeded 0.25% (v/v). The FDA-approved anticancer drug set is available from the Developmental Therapeutics Program at https://dtp.cancer.gov/organization/dscb/obtaining/available_plates.htm. All drugs and investigational agents were tested over a range starting from a high concentration at or near the clinical Cmax and decreasing in half-log increments. If the clinical Cmax for an agent had not been determined, the highest concentration tested was 10 microM.
Cell Lines. The patient-derived cancer cell (PDC) lines: 292921-168-R-J2-PDC, K24384-001-R-PDC, and 521955-158-R2-J5-PDC pancreatic carcinomas, 556581-035-R-J1 ovarian carcinoma, 324938-238-R-J1-PDC, 855422-203-R-J1-PDC and 883617-216-R-J1-PDC urothelial bladder carcinomas, 743489-274-T-PDC renal cell carcinoma, 138582-R-J1 Merkel cell tumor, K60290-347-R-J1 and K57222-313-R-J1-PDC glioblastomas, 653999-131-R-J2-PDC, LG0703-F948-PDC, and 349418-098-R-PDC non-small cell lung carcinomas, 885512-296-R-J2-PDC, 171881-019-R-J1-PDC breast carcinomas and 186277-243-T-J2-PDC and 233499-124-R-J2-PDC colon carcinomas were obtained from the NCI Patient-Derived Models Repository (PDMR, https://pdmr.cancer.gov). The established cell lines NCI/ADR-RES (RRID:CVCL_14520 and OVCAR-5 (RRID:CVCL_1628) ovarian carcinomas, 786-O (RRID:CVCL_1051) and A498 (RRID:CVCL_A498) renal cell carcinoma, NCI-H211 (ATCC, cat. CRL-5824; RRID:CVCL_1529), NCI-H196 (ATCC, cat. CRL-5823, RRID:CVCL_1509), SW 1271 (ATCC, cat. CRL-2177, RRID:CVCL_1716) and NCI-H1876 (ATCC, cat. CRL-5902, RRID:CVCL_1503) small cell lung carcinomas, MDA-MB-231 (RRID:CVCL_0062) and MDA-MB-468 (RRID:CVCL_0419)breast carcinomas (10-12). Pooled donor human umbilical vein endothelial cells (HUVEC, Lonza, cat. CC-2519) and human mesenchymal stem cells (hMSC, Lonza, cat. PT-2501) were purchased from Lonza (Walkersville, MD).
Cell Culture. All cells were maintained in an incubator at 37 degrees C and 5% CO2 with 95% humidity. The PDC lines were cultured according to standard operating procedures established by the NCI PDMR (https://pdmr.cancer.gov). Briefly all PDCs were thawed and cultured in Matrigel-coated flasks prepared with a working solution of 1X Ham's F-12 nutrient mix, without supplementation (Invitrogen, Waltham, MA, cat. 11765054), 100 U/mL penicillin-streptomycin (Invitrogen, cat. 15140122), and 2.5% Matrigel (Corning Inc., Corning, NY, cat. 354248) for the first three passages. […]

[1] = second compound 0.1 µM, first compound 0.000949 µM
[2] = second compound 0.1 µM, first compound 0.003 µM
[3] = second compound 0.1 µM, first compound 0.00949 µM
[4] = second compound 0.1 µM, first compound 0.03 µM
[5] = second compound 0.1 µM, first compound 0.0949 µM
[6] = second compound 0.1 µM, first compound 0.3 µM
[7] = second compound 0.316 µM, first compound 0.000949 µM
[8] = second compound 0.316 µM, first compound 0.003 µM
[9] = second compound 0.316 µM, first compound 0.00949 µM
[10] = second compound 0.316 µM, first compound 0.03 µM
[11] = second compound 0.316 µM, first compound 0.0949 µM
[12] = second compound 0.316 µM, first compound 0.3 µM
[13] = second compound 1 µM, first compound 0.000949 µM
[14] = second compound 1 µM, first compound 0.003 µM
[15] = second compound 1 µM, first compound 0.00949 µM
[16] = second compound 1 µM, first compound 0.03 µM
[17] = second compound 1 µM, first compound 0.0949 µM
[18] = second compound 1 µM, first compound 0.3 µM
[19] = second compound 3.16 µM, first compound 0.000949 µM
[20] = second compound 3.16 µM, first compound 0.003 µM
[21] = second compound 3.16 µM, first compound 0.00949 µM
[22] = second compound 3.16 µM, first compound 0.03 µM
[23] = second compound 3.16 µM, first compound 0.0949 µM
[24] = second compound 3.16 µM, first compound 0.3 µM
[25] = second compound 10 µM, first compound 0.000949 µM
[26] = second compound 10 µM, first compound 0.003 µM
[27] = second compound 10 µM, first compound 0.00949 µM
[28] = second compound 10 µM, first compound 0.03 µM
[29] = second compound 10 µM, first compound 0.0949 µM
[30] = second compound 10 µM, first compound 0.3 µM
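Also: drug exposure lasted 7 days starting on day 3 after seeding.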
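For viability, T/C in this document: luminescence viability as percent of DMSO vehicle wells = 100%.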

## CCc1c2c(nc3ccc(O)cc13)-c1cc3c(c(=O)n1C2)COC(=O)[C@]3(O)CC + NC1CC1c1ccc(-c2cccc(O)c2)cc1
Second compound 0.1 µM
  IC50: < 0.949 nM
Second compound 0.316 µM
  IC50: < 0.949 nM
Second compound 1 µM
  IC50: < 0.949 nM
Second compound 3.16 µM
  IC50: < 0.949 nM
Second compound 10 µM
  IC50: < 0.949 nM
[1]
  viability, T/C: 20.8%
[2]
  viability, T/C: 14.2%
[3]
  viability, T/C: 9.58%
[4]
  viability, T/C: 6.75%
[5]
  viability, T/C: 4.82%
[6]
  viability, T/C: 3.56%
[7]
  viability, T/C: 17.1%
[8]
  viability, T/C: 15.1%
[9]
  viability, T/C: 10.9%
[10]
  viability, T/C: 6.65%
[11]
  viability, T/C: 4.88%
[12]
  viability, T/C: 2.78%
[13]
  viability, T/C: 15.7%
[14]
  viability, T/C: 13%
[15]
  viability, T/C: 10.2%
[16]
  viability, T/C: 6.49%
[17]
  viability, T/C: 3.41%
[18]
  viability, T/C: 2.05%
[19]
  viability, T/C: 15.7%
[20]
  viability, T/C: 13.7%
[21]
  viability, T/C: 9.86%
[22]
  viability, T/C: 6.91%
[23]
  viability, T/C: 4.7%
[24]
  viability, T/C: 2.44%
[25]
  viability, T/C: 17.6%
[26]
  viability, T/C: 12.6%
[27]
  viability, T/C: 8.31%
[28]
  viability, T/C: 5.99%
[29]
  viability, T/C: 2.54%
[30]
  viability, T/C: 1.14%

## Nc1ccn(C2OC(CO)C(O)C2(F)F)c(=O)n1 (stereo not given) + NC1CC1c1ccc(-c2cccc(O)c2)cc1
Second compound 0.1 µM
  IC50: 2.84 nM
Second compound 0.316 µM
  IC50: 3.19 nM
Second compound 1 µM
  IC50: 2.95 nM
Second compound 3.16 µM
  IC50: 2.25 nM
Second compound 10 µM
  IC50: 3.01 nM
[1]
  viability, T/C: 84.7%
[2]
  viability, T/C: 46.3%
[3]
  viability, T/C: 33.9%
[4]
  viability, T/C: 25.2%
[5]
  viability, T/C: 22.6%
[6]
  viability, T/C: 18.3%
[7]
  viability, T/C: 86.9%
[8]
  viability, T/C: 49%
[9]
  viability, T/C: 34.2%
[10]
  viability, T/C: 26.7%
[11]
  viability, T/C: 19.9%
[12]
  viability, T/C: 17.1%
[13]
  viability, T/C: 76%
[14]
  viability, T/C: 48.5%
[15]
  viability, T/C: 36%
[16]
  viability, T/C: 25%
[17]
  viability, T/C: 20.4%
[18]
  viability, T/C: 20.6%
[19]
  viability, T/C: 76.8%
[20]
  viability, T/C: 36.9%
[21]
  viability, T/C: 33.3%
[22]
  viability, T/C: 25.1%
[23]
  viability, T/C: 17.8%
[24]
  viability, T/C: 18.8%
[25]
  viability, T/C: 77.4%
[26]
  viability, T/C: 46.4%
[27]
  viability, T/C: 38%
[28]
  viability, T/C: 28%
[29]
  viability, T/C: 23.3%
[30]
  viability, T/C: 18.5%

## O=C(c1cc(Cc2n[nH]c(=O)c3ccccc23)ccc1F)N1CCN(C(=O)C2CC2)CC1 + NC1CC1c1ccc(-c2cccc(O)c2)cc1
Second compound 0.1 µM
  IC50: > 10000 nM
Second compound 0.316 µM
  IC50: > 10000 nM
Second compound 1 µM
  IC50: > 10000 nM
Second compound 3.16 µM
  IC50: > 10000 nM
Second compound 10 µM
  IC50: > 10000 nM
Second compound 0.1 µM, first compound 0.0316 µM
  viability, T/C: 98.9%
Second compound 0.1 µM, first compound 0.1 µM
  viability, T/C: 99.2%
Second compound 0.1 µM, first compound 0.316 µM
  viability, T/C: 99.8%
Second compound 0.1 µM, first compound 1 µM
  viability, T/C: 98%
Second compound 0.1 µM, first compound 3.16 µM
  viability, T/C: 102%
Second compound 0.1 µM, first compound 10 µM
  viability, T/C: 84%
Second compound 0.316 µM, first compound 0.0316 µM
  viability, T/C: 91.1%
Second compound 0.316 µM, first compound 0.1 µM
  viability, T/C: 87.4%
Second compound 0.316 µM, first compound 0.316 µM
  viability, T/C: 97.2%
Second compound 0.316 µM, first compound 1 µM
  viability, T/C: 98.4%
Second compound 0.316 µM, first compound 3.16 µM
  viability, T/C: 101%
Second compound 0.316 µM, first compound 10 µM
  viability, T/C: 81.4%
Second compound 1 µM, first compound 0.0316 µM
  viability, T/C: 90.1%
Second compound 1 µM, first compound 0.1 µM
  viability, T/C: 87.7%
Second compound 1 µM, first compound 0.316 µM
  viability, T/C: 89.3%
Second compound 1 µM, first compound 1 µM
  viability, T/C: 95.5%
Second compound 1 µM, first compound 3.16 µM
  viability, T/C: 90.3%
Second compound 1 µM, first compound 10 µM
  viability, T/C: 80.8%
Second compound 3.16 µM, first compound 0.0316 µM
  viability, T/C: 94.4%
Second compound 3.16 µM, first compound 0.1 µM
  viability, T/C: 89.7%
Second compound 3.16 µM, first compound 0.316 µM
  viability, T/C: 92.1%
Second compound 3.16 µM, first compound 1 µM
  viability, T/C: 91.3%
Second compound 3.16 µM, first compound 3.16 µM
  viability, T/C: 93.6%
Second compound 3.16 µM, first compound 10 µM
  viability, T/C: 70.1%
Second compound 10 µM, first compound 0.0316 µM
  viability, T/C: 92.2%
Second compound 10 µM, first compound 0.1 µM
  viability, T/C: 89.4%
Second compound 10 µM, first compound 0.316 µM
  viability, T/C: 85.1%
Second compound 10 µM, first compound 1 µM
  viability, T/C: 89.6%
Second compound 10 µM, first compound 3.16 µM
  viability, T/C: 83.3%
Second compound 10 µM, first compound 10 µM
  viability, T/C: 55.5%
